The values below come from patent US7795290B2 (Genentech, Inc., priority 2004, dated 2010).

Holding throughout (experiment): HTS ATP-utilizing enzyme assay, off-chip mobility-shift (Caliper HTS 250)
Assay type in all cases: biochemical
What all share (details): kinase named = inhibitory activity/selectivity; test compound 10 μM; active = greater than three-sigma from mean

One test deals with GSK-3-α (Homo sapiens, UniProt P49840). The text has this: (§1) The following procedures describe the reagent and plate preparation for a HTS of an ATP-utilizing enzyme, such as a protein kinase, run in an off-chip mobility-shift assay format. The following provides an HTS protocol for running a protein kinase HTS screen on a Caliper HTS 250 microfluidics system. The following parameters are dependent on the protein kinase used and can be determined by one skilled in the art as part of a typical assay development process. For example, the peptide substrate used can be identified from the current literature, by screening a peptide library of potential protein kinase substrates, or by other applicable means accepted in the field.
Chain of GSK-3-α (P49840 whole entry): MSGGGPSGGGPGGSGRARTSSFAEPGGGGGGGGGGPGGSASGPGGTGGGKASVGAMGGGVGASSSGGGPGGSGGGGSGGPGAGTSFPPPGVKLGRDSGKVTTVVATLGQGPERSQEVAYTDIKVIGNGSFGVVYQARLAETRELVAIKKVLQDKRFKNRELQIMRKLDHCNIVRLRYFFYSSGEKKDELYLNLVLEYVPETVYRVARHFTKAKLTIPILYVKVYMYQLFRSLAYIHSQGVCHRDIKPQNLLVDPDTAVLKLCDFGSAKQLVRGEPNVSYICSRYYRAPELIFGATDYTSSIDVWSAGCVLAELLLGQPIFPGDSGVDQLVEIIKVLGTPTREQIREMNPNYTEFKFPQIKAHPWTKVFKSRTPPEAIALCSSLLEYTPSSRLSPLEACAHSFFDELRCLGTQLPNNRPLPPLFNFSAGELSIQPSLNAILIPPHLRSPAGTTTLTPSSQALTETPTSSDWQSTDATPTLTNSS
(§2) Assays to determine the kinase inhibitory activity of chemical entities of the present disclosure were performed using a Caliper HTS 250 microfluidics device, Greiner U-bottom assay plates, a Multidrop for transfer of reagents, and Biomek FX (AMNCBM03) software. Initially, 2.4 μL of a 1 mM solution of a test compound in 100% DMSO was added to a well of the Greiner U-bottom plate. A single Greiner U-bottom plate having 24×16 wells could include multiple test compounds. Next, 40 μL of 1.06× Assay Buffer was added to each well of the assay plate. Using the Biomek FX, 10 μL of 0.5 M EDTA was added by the span-8 to wells, indicated as 100% Control and 2.4 μL of 100% DMSO was added by the span-8 to wells, indicated as 0% Control. Using the Multidrop, 10 μL of 2.5× Enzyme Buffer, followed by 10 μL of 2.5× Substrate Buffer was added to each well of the assay plate. The total reaction volume in each well was 25 μL, and the concentration of the test compound was 10 μM. The assay plate was incubated for 2.5 hrs at 20° C. to 22° C. After the incubation period, using the Multidrop, 45 μL of 1.55× Termination Buffer was added to each well of the assay plate to stop the reaction. The inhibition of the ATP-utilizing enzyme, such as a particular protein kinase, was determined by measuring the ratio of the peptide substrate to phosphorylated product for each well of the assay plate using the Caliper HTS 250 system.
(§3) The use of three-sigma statistical limits represents a conservative method for declaring potential hits among targets. The three-sigma activity, as well as the mean population activity, can be different for each target enzyme. This method has an expected false positive rate, from an in-control measurement process, of […].
(§4) Each chemical entity listed in Table 2 was tested for protein kinase inhibitory activity according to the biological assays and definitions of protein kinase inhibitory activity as described herein. For each exemplary compound listed in Table 2, the inhibitory activity for at least one protein kinase according to the biological assays and definitions of protein kinase inhibitory activity as described herein is indicated.

A further test addresses T1, AURORA-A (Homo sapiens, UniProt O14965).
T1 sequence (O14965 1-403): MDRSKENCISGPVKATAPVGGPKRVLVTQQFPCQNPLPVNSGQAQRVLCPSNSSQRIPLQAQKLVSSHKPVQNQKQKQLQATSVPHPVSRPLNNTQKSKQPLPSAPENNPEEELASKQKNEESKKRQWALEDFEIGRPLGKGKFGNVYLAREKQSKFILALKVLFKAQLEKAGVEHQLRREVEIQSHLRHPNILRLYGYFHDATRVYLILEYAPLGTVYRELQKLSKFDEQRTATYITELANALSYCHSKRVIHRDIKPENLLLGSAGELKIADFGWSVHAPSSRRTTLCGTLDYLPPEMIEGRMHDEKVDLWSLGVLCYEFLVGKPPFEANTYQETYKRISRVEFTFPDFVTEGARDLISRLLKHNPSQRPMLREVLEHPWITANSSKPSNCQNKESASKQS
Excerpt: as §1, §2, §3, §4

The target in the next test is T2, DYRK2 (Homo sapiens, UniProt Q92630).
T2 sequence (Q92630 1-601): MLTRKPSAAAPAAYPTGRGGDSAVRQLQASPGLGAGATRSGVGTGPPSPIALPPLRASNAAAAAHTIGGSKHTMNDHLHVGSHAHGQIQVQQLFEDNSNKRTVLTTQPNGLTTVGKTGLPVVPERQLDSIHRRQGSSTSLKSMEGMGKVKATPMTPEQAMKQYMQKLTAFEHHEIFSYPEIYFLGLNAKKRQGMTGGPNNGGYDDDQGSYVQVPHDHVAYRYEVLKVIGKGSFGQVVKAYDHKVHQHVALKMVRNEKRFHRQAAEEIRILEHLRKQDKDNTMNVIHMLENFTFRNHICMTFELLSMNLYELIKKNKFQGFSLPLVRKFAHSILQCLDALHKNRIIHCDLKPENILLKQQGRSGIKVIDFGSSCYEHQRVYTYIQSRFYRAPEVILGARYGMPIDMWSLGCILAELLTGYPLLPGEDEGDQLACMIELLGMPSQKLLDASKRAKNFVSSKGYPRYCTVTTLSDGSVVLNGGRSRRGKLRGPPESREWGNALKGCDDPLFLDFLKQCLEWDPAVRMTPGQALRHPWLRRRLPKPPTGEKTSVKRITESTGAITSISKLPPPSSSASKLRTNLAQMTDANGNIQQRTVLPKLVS
Excerpt: as §1, §2, §3, §4

The next test concerns the target T3, AKT1 (Homo sapiens, UniProt P31749).
T3 construct: purchased Upstate 14-276
The essentials:
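AKT1 activity was measured by off-chip mobility shift (Caliper HTS 250) as the ratio of peptide substrate to phosphorylated product. Test compound was at 10 μM, with 2.5 h incubation at 20–22° C. EDTA wells served as 100% control and DMSO wells as 0%. Hits were called at three-sigma limits.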

The next test concerns the target KIT (Homo sapiens, UniProt P10721).
Excerpt: as §1, §2, §3, §4

The target in the next test is T4, ZAP70 (Homo sapiens, UniProt P43403).
T4 sequence (P43403 1-619): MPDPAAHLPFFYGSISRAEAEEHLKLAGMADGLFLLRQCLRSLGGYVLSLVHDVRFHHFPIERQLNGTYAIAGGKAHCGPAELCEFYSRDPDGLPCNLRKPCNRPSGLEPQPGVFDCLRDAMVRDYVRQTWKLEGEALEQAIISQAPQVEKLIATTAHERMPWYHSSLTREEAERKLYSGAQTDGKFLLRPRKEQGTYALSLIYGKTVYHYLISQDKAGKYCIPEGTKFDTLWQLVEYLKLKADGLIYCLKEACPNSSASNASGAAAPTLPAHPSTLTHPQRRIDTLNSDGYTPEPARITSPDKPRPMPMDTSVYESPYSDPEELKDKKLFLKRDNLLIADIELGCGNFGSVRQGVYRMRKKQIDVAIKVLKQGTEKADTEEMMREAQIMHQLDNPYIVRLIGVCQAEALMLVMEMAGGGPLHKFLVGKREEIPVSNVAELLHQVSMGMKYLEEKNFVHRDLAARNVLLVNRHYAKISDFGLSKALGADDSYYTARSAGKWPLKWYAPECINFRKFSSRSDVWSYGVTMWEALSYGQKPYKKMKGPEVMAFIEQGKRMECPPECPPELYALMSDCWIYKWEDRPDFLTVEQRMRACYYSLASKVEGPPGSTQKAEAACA
Excerpt: as §1, §2, §3, §4

SMILES strings stand for the structures.

Chain of KIT (P10721 26-976): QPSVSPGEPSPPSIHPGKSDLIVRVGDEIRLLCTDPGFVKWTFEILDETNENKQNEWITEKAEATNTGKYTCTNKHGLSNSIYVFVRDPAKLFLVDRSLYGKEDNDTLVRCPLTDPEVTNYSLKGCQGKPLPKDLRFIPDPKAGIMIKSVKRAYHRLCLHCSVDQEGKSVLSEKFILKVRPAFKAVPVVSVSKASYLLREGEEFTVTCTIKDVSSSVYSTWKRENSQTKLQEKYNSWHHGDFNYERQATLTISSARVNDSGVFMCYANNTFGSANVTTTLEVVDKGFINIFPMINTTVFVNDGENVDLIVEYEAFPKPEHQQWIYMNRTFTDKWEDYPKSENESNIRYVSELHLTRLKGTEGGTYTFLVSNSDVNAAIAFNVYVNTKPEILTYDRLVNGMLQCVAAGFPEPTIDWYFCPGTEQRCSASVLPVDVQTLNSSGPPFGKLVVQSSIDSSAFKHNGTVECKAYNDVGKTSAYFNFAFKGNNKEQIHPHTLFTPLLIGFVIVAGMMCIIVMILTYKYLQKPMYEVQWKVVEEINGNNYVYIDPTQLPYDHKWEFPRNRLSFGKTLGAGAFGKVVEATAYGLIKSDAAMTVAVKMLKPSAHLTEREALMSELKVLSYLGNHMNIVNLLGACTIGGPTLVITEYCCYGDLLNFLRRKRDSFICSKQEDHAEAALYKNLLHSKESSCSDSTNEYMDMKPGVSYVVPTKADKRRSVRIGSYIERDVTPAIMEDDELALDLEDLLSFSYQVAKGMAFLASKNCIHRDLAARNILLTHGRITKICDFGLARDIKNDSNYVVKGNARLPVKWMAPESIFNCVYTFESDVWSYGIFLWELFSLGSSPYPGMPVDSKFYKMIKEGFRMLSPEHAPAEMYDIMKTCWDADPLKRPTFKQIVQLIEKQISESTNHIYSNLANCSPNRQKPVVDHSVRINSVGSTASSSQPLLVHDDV
T3 sequence (P31749 whole entry): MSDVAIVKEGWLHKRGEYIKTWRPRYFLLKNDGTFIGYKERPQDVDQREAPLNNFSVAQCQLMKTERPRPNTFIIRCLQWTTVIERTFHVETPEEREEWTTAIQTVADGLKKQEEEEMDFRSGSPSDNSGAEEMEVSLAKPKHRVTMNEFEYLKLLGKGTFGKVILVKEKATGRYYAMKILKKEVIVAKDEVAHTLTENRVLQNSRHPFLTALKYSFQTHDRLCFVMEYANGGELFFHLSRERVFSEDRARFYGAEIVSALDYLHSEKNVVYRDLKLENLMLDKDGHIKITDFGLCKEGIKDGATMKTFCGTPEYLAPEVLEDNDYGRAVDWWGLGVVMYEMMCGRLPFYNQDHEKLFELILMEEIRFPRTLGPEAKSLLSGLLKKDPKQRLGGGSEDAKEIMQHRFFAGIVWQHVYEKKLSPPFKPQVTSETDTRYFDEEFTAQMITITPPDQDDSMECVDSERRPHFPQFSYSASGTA

As for `COc1ccc(OC)c(-c2csc(N(CCc3ccc(OC)c(OC)c3)C(=O)CCC(=O)O)n2)c1` [4-((3,4-dimethoxyphenethyl)(4-(2,5-dimethoxyphenyl)thiazol-2-yl)amino)-4-oxobutanoic acid], on GSK-3-α, the Activity result is recorded as “GSK-3-α”.
As to `COc1ccc(OC)c(-c2csc(N(Cc3ccco3)C(=O)CCC(=O)O)n2)c1` [4-((4-(2,5-dimethoxyphenyl)thiazol-2-yl)(furan-2-ylmethyl)amino)-4-oxobutanoic acid], the Activity result is on record as “GSK-3-α” at GSK-3-α and “AURORA-A” at AURORA-A.
For the compound `COc1ccc(OC)c(-c2csc(N(Cc3ccccc3)C(=O)CCC(=O)O)n2)c1` [4-(benzyl(4-(2,5-dimethoxyphenyl)thiazol-2-yl)amino)-4-oxobutanoic acid], the Activity entry at AURORA-A was “AURORA-A”.
Consider `CCCCN(C(=O)CCC(=O)O)c1nc(-c2cc(OC)ccc2OC)cs1` [4-(butyl(4-(2,5-dimethoxyphenyl)thiazol-2-yl)amino)-4-oxobutanoic acid], for which the results for the Activity entry at GSK-3-α and on AURORA-A were “GSK-3-α” and “AURORA-A”, respectively.
For `COc1ccc(-c2csc(N(CC(C)C)C(=O)CCC(=O)O)n2)cc1` [4-(isobutyl(4-(4-methoxyphenyl)thiazol-2-yl)amino)-4-oxobutanoic acid], the values for the Activity entry at AURORA-A and on DYRK2 were “AURORA-A” and “DYRK2”, respectively.
Turning to `CC(=O)N(CCCN1CCOCC1)c1nc(-c2ccccc2)cs1` [N-(3-morpholinopropyl)-N-(4-phenylthiazol-2-yl)acetamide], at GSK-3-α, the Activity entry is “GSK-3-α”.
Still for that read-out and setting: to `COc1ccc(OC)c(-c2csc(N(CCCN(C)C)C(C)=O)n2)c1` [N-(4-(2,5-dimethoxyphenyl)thiazol-2-yl)-N-(3-(dimethylamino)propyl)acetamide] belongs “GSK-3-α”.
In the case of `O=C(c1cccs1)N(CCCN1CCOCC1)c1nc(-c2ccnc(Cl)c2)cs1` [N-(4-(2-chloropyridin-4-yl)thiazol-2-yl)-N-(3-morpholinopropyl)thiophene-2-carboxamide], the Activity entry was “AKT1” at AKT1 and “KIT” at KIT.
On the same counts, the results for `O=C(c1cccs1)N(CCCN1CCOCC1)c1nc(-c2ccc3c(c2)OCCCO3)cs1` [N-(4-(3,4-dihydro-2H-benzo[b][1,4]dioxepin-7-yl)thiazol-2-yl)-N-(3-morpholinopropyl)thiophene-2-carboxamide] are “AKT1” and “KIT”.
Consider `N#Cc1cccc(-c2csc(N(CCCN3CCOCC3)C(=O)c3cccs3)n2)c1` [N-(4-(3-cyanophenyl)thiazol-2-yl)-N-(3-morpholinopropyl)thiophene-2-carboxamide], for which the Activity result was “AKT1” on AKT1, “KIT” at KIT and “GSK-3-α” on GSK-3-α.
`COc1ccc(-c2csc(N(CCCN3CCOCC3)C(=O)c3c(C)noc3C)n2)cc1` [N-(4-(4-methoxyphenyl)thiazol-2-yl)-3,5-dimethyl-N-(3-morpholinopropyl)isoxazole-4-carboxamide]: the Activity entry is recorded as “KIT” on KIT and “ZAP70” at ZAP70.
Consider `COc1ccc(-c2csc(N(CCCN3CCOCC3)C(=O)c3ccc(SC)s3)n2)cc1` [N-(4-(4-methoxyphenyl)thiazol-2-yl)-5-(methylthio)-N-(3-morpholinopropyl)thiophene-2-carboxamide], for which the Activity entry is recorded as “KIT” at KIT and “ZAP70” on ZAP70.
On to `COc1ccc(-c2csc(N(CCCN3CCOCC3)C(=O)c3ccc(C)o3)n2)cc1` [N-(4-(4-methoxyphenyl)thiazol-2-yl)-5-methyl-N-(3-morpholinopropyl)furan-2-carboxamide], for which the Activity entry at AKT1 is “AKT1”; at KIT, “KIT”.
`COc1ccc(-c2csc(N(CCCN3CCOCC3)C(=O)COc3ccccc3)n2)cc1` [N-(4-(4-methoxyphenyl)thiazol-2-yl)-N-(3-morpholinopropyl)-2-phenoxyacetamide]: the Activity result was “GSK-3-α” at GSK-3-α and “DYRK2” at DYRK2.
For `COc1ccc(-c2csc(N(CCCN3CCOCC3)C(=O)c3ccno3)n2)cc1` [N-(4-(4-methoxyphenyl)thiazol-2-yl)-N-(3-morpholinopropyl)isoxazole-5-carboxamide], the values for the Activity entry on AKT1 and on AURORA-A were “AKT1” and “AURORA-A”, respectively.
